According to patent US20240209011A1, “HETEROAROMATIC PHOSPHONIUM SALTS FOR TREATING CANCER” (FLORATEK PHARMA S.A., priority 2021, published 2024):

Key:
Assay type in all cases: cell-based
BR-05-0014E = test: PDX-derived cell culture cytotoxicity (CellTiter-Glo); conditions: 120 h; breast PDX BR-05-0014E; absolute IC50; 5 days
Procedure: (§1) PDX-derived cell cultures were obtained from tumors explanted from mice and isolated by mechanical and enzymatic dissociation. […] Cells were harvested and seeded in 96-wells plates at a density of 1.25 to 5×10^3 cells/well for cytotoxicity assays. Cells were incubated 48 h at 37° C. prior to addition of test molecules and vehicle (DMSO, 0.1%) at desired final concentrations. Cell viability was assessed before drugs' addition (To) and 5 days after test molecules addition by measuring ATP cell content using CellTiter-Glo® Luminescent Cell Viability Assay (Promega) according to the manufacturer's instructions. Luciferase activity was measured on a luminometer (PerkinElmer® EnVision™). Each concentration of compounds was tested in triplicate.
(§2) Viability was calculated as a percentage of ATP value compared to vehicle treated controls.
(§3) For PDX primary cell cultures, the tumour tissue was washed with PBS containing antibiotic-antimycotic and non-tumour tissue and necrotic tumour tissues were separated. The tumour tissue was transferred to a new dish and cut into 1-2 mm^3 fragments, resuspended in RPMI-1640 medium and centrifuged at 1,200 rpm for 6 min at room temperature. The pelleted material was resuspended with 15 mL of Tumour Cell Digestion Solution and incubated at 37° C. for 1 hour with agitation. Following further addition of media, centrifugation and passage through a […] cell strainer, the homogenous cell mixture was layered onto 15 mL of Ficoll-Paque PLUS in a 50 mL conical tube and centrifuged for 15 min at 1,600 rpm. The interface cells were collected, washed with media, separated by centrifugation at 1,200 rpm. The cell pellet was resuspended in serum free media supplemented with growth factors. 10,000 cells/wells were plated in a 96 well plate and incubated at 37° C., 5% CO2, 95% air and 100% relative humidity overnight. The cytotoxicity assay was conducted as above. IC50 values represent absolute IC50.

BR-05-0399 = test: as above; conditions: 120 h; breast PDX BR-05-0399; absolute IC50; 5 days
Procedure: as §1, §2, §3

CH-17-0091 = test: as above; conditions: 120 h; bile duct PDX CH-17-0091; absolute IC50; 5 days
Procedure: as §1, §2, §3

CO-04-0700 = test: as above; conditions: 120 h; colon PDX CO-04-0700; absolute IC50; 5 days
Procedure: as §1, §2, §3

CO-04-0701 = test: as above; conditions: 120 h; colon PDX CO-04-0701; absolute IC50; 5 days
Procedure: as §1, §2, §3

CO-04-0722 = test: as above; conditions: 120 h; colon PDX CO-04-0722; absolute IC50; 5 days
Procedure: as §1, §2, §3

EN-11-0101 = test: as above; conditions: 120 h; endometrial PDX EN-11-0101; absolute IC50; 5 days
Procedure: as §1, §2, §3

ES-06-0002 = test: as above; conditions: 120 h; esophagus PDX ES-06-0002; absolute IC50; 5 days
Procedure: as §1, §2, §3

ES-06-0122 = test: as above; conditions: 120 h; esophagus PDX ES-06-0122; absolute IC50; 5 days
Procedure: as §1, §2, §3

HN-13-0020 = test: as above; conditions: 120 h; head and neck PDX HN-13-0020; absolute IC50; 5 days
Procedure: as §1, §2, §3

KI-12-0062 = test: as above; conditions: 120 h; kidney PDX KI-12-0062; absolute IC50; 5 days
Procedure: as §1, §2, §3

LU-01-0004 = test: as above; conditions: 120 h; lung PDX LU-01-0004; absolute IC50; 5 days
Procedure: as §1, §2, §3

LU-01-0010 = test: as above; conditions: 120 h; lung PDX LU-01-0010; absolute IC50; 5 days
Procedure: as §1, §2, §3

LU-01-0025 = test: as above; conditions: 120 h; lung PDX LU-01-0025; absolute IC50; 5 days
Procedure: as §1, §2, §3

LU-01-0027 = test: as above; conditions: 120 h; lung PDX LU-01-0027; absolute IC50; 5 days
Procedure: as §1, §2, §3

LY-24-0340 = test: as above; conditions: 120 h; lymphoma PDX LY-24-0340; absolute IC50; 5 days
Procedure: as §1, §2, §3

ME-21-0028 = test: as above; conditions: 120 h; skin melanoma PDX ME-21-0028; absolute IC50; 5 days
Procedure: as §1, §2, §3

PC-07-0045 = test: as above; conditions: 120 h; pancreatic PDX PC-07-0045; absolute IC50; 5 days
Procedure: as §1, §2, §3

PC-07-0059 = test: as above; conditions: 120 h; pancreatic PDX PC-07-0059; absolute IC50; 5 days
Procedure: as §1, §2, §3

ST-02-0007 = test: as above; conditions: 120 h; stomach PDX ST-02-0007; absolute IC50; 5 days
Procedure: as §1, §2, §3

ST-02-0012 = test: as above; conditions: 120 h; stomach PDX ST-02-0012; absolute IC50; 5 days
Procedure: as §1, §2, §3

ST-02-0173 = test: as above; conditions: 120 h; stomach PDX ST-02-0173; absolute IC50; 5 days
Procedure: as §1, §2, §3

ST-02-0322 = test: as above; conditions: 120 h; stomach PDX ST-02-0322; absolute IC50; 5 days
Procedure: as §1, §2, §3

colon PDX = test: Activity against colon PDX; conditions: for IC50: growth of colon PDX, Table 8; for selectivity among colon PDX: colon PDX CO-04-0722 and CO-04-0700 versus CO-04-0701
Procedure: as §1, §2, §3

lung PDX = test: Activity against lung PDX; conditions: lung PDX growth; Table 16
Procedure: as §1, §2, §3

Compound	IC50 (BR-05-0014E)	IC50 (BR-05-0399)	IC50 (CH-17-0091)	IC50 (CO-04-0700)	IC50 (CO-04-0701)	IC50 (CO-04-0722)	IC50 (EN-11-0101)	IC50 (ES-06-0002)	IC50 (ES-06-0122)	IC50 (HN-13-0020)	IC50 (KI-12-0062)	IC50 (LU-01-0004)	IC50 (LU-01-0010)	IC50 (LU-01-0025)	IC50 (LU-01-0027)	IC50 (LY-24-0340)	IC50 (ME-21-0028)	IC50 (PC-07-0045)	IC50 (PC-07-0059)	IC50 (ST-02-0007)	further results
O=c1cc(-c2ccc(CCCC[P+](c3ccccc3)(c3ccccc3)c3ccccc3)cc2)oc2c3c(ccc12)OCO3.[Br-] [SND123, 4-[4-(6-oxo-[1,3]dioxolo[4,5-h]chromen-8-yl)phenyl]butyl-triphenylphosphonium bromide]	0.98 µM	2.1 µM	3 µM	2.6 µM	3.4 µM	2.1 µM	1.8 µM	2.9 µM	4.5 µM	1.5 µM	3 µM	3 µM	0.8 µM	2.4 µM	5.9 µM	0.4 µM	0.8 µM	4 µM	2.7 µM	1.5 µM	IC50 (ST-02-0012): 0.3 µM; IC50 (ST-02-0173): 2.2 µM; IC50 (ST-02-0322): 5.2 µM; IC50 (colon PDX): < 20 µM; IC50 (lung PDX): < 20 µM
CCNC(=O)Oc1ccc2c(=O)cc(-c3ccc(CCCC[P+](c4ccccc4)(c4ccccc4)c4ccccc4)cc3)oc2c1O.[Br-] [SND126A, 4-[4-[7-(Ethylcarbamoyloxy)-8-hydroxy-4-oxo-chromen-2-yl]phenyl]butyltriphenylphosphonium bromide]	7.7 µM	6.5 µM	7.2 µM	2.3 µM	> 30 µM	3.4 µM	10.2 µM	9.3 µM	8.3 µM	2.7 µM	11 µM	8.4 µM	7.6 µM	5.3 µM	12 µM	4.1 µM	8 µM	7.7 µM	4.9 µM	10.7 µM	IC50 (ST-02-0012): 8.9 µM; IC50 (ST-02-0173): 14.7 µM; IC50 (ST-02-0322): 9.8 µM; selectivity among colon PDX (colon PDX): marked selectivity toward CO-04-0722 and CO-04-0700; IC50 (colon PDX): < 20 µM; IC50 (lung PDX): < 20 µM
COc1c(O)ccc2c(=O)cc(-c3ccc(CCCC[P+](c4ccccc4)(c4ccccc4)c4ccccc4)cc3)oc12.[Br-] [SND140, (4-(4-(7-hydroxy-8-methoxy-4-oxo-4H-chromen-2-yl)phenyl)butyl)triphenylphosphonium bromide]	10.4 µM	6 µM	> 50 µM	12.8 µM	13.8 µM	11.6 µM	6.2 µM	9.66 µM	13.5 µM	9.1 µM	16.8 µM	11.7 µM	3 µM	10.5 µM	16 µM	4.1 µM	1.1 µM	13.2 µM	20.4 µM	12 µM	IC50 (ST-02-0012): 4.9 µM; IC50 (ST-02-0173): 9.8 µM; IC50 (ST-02-0322): 13.3 µM; IC50 (colon PDX): < 20 µM; IC50 (lung PDX): < 20 µM
CCNC(=O)Oc1ccc2c(=O)cc(-c3ccc(CCCC[P+](c4ccccc4)(c4ccccc4)c4ccccc4)cc3)oc2c1OC(=O)NCC.[Br-] [SND124, 4-[4-[7,8-Bis(ethylcarbamoyloxy)-4-oxo-chromen-2-yl]phenyl]-butyltriphenylphosphonium bromide]	7.2 µM	5.2 µM	5.4 µM	2.3 µM	21.8 µM	3.2 µM	9.6 µM	5.6 µM	8.5 µM	2 µM	8.5 µM	7.1 µM	7 µM	4.2 µM	9.3 µM	3.7 µM	7.7 µM	7 µM	4.2 µM	10.2 µM	IC50 (ST-02-0012): 8.2 µM; IC50 (ST-02-0173): 11.3 µM; IC50 (ST-02-0322): 10.6 µM; selectivity among colon PDX (colon PDX): marked selectivity toward CO-04-0722 and CO-04-0700; IC50 (colon PDX): < 20 µM; IC50 (lung PDX): < 20 µM
